How the values were obtained:
Format in all cases: cell-based
[1] = target: human EGFR exon 20 insertion ASV (V769_D770insASV) (Homo sapiens (Human), UniProt P00533, INS769ASV); assay: Ba/F3-EGFR-Exon20-ASV cell anti-proliferative assay (CellTiter 96 MTS, 72 h); settings: Ba/F3-EGFR-Exon20-ASV cells;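 further: Ba/F3 cells bearing the EGFR exon 20 ASV insertion, a line able to proliferate without IL-3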
[2] = target: Her2 exon 20 YVMA insertion (A775_G776ins YVMA) (Homo sapiens (Human), UniProt P04626, INS775YVMA); assay: Ba/F3-Her2 Exon20 YVMA cell anti-proliferative assay (CellTiter 96 MTS, 72 h); settings: Ba/F3-Her2 Exon20 YVMA cells
Excerpt: Ba/F3 cells expressing Her2 Exon20 YVMA insertions (named Ba/F3-Her2 Exon20 YVMA) can proliferate in the absence of IL-3.

[3] = target: human EGFR exon 20 insertion NPG (H773_V774insNPG) (Homo sapiens, UniProt P00533, INS773NPG, cells depend on it); assay: Ba/F3-EGFR-Exon20-NPG cell anti-proliferative assay (CellTiter 96 MTS, 72 h); settings: read-out: EGFR exon 20 NPG insertion IC50
Experimental: Ba/F3 cells expressing EGFR exon 20 insertions (named Ba/F3-EGFR-Exon20-NPG or Ba/F3-EGFR-Exon20-ASV) can proliferate in the absence of IL-3. The anti-proliferative activity of compounds were determined as follows: BaF3-EGFR-Exon20 cells (NPG or ASV) seeded in 96 well plates (2500 cells/well) were treated with test compound (dissolved in DMSO) at a series of concentrations (4-fold dilution, top concentration: 10,000 nM). The plates were incubated for 72 h in a 37° C. incubator with 5% CO2, and the number of viable cells in each well were measured indirectly by CellTiter 96® Aqueous One Solution Cell Proliferation Assay (Promega) This assay is a colorimetric method for determining the number of viable cells through measurement of their metabolic activity by detection of enzymatic conversion of tetrazolium salts into blue formazan derivatives. Reagent (20 μL) was added into each well, and the plates were returned to the incubator for 2 h. The absorbance in each well was then measured at 490 nm using an Envision plate reader (Perkin Elmer).

[4] = target: human EGFR E746-A750 deletion and T790M Mutation (DT) (Homo sapiens (Human), UniProt P00533, DEL746-750/T790M); assay: Ba/F3-EGFR-Del/T790M cell anti-proliferative assay (CellTiter 96 MTS, 72 h); settings: Ba/F3-EGFR-Del/T790M cells; read-out: EGFR exon 19 deletion and T790M mutation IC50
Sequence of human EGFR E746-A750 deletion and T790M Mutation (DT) (P00533 other isoform, or with tags, fused parts or gaps T790M/del E746-A750): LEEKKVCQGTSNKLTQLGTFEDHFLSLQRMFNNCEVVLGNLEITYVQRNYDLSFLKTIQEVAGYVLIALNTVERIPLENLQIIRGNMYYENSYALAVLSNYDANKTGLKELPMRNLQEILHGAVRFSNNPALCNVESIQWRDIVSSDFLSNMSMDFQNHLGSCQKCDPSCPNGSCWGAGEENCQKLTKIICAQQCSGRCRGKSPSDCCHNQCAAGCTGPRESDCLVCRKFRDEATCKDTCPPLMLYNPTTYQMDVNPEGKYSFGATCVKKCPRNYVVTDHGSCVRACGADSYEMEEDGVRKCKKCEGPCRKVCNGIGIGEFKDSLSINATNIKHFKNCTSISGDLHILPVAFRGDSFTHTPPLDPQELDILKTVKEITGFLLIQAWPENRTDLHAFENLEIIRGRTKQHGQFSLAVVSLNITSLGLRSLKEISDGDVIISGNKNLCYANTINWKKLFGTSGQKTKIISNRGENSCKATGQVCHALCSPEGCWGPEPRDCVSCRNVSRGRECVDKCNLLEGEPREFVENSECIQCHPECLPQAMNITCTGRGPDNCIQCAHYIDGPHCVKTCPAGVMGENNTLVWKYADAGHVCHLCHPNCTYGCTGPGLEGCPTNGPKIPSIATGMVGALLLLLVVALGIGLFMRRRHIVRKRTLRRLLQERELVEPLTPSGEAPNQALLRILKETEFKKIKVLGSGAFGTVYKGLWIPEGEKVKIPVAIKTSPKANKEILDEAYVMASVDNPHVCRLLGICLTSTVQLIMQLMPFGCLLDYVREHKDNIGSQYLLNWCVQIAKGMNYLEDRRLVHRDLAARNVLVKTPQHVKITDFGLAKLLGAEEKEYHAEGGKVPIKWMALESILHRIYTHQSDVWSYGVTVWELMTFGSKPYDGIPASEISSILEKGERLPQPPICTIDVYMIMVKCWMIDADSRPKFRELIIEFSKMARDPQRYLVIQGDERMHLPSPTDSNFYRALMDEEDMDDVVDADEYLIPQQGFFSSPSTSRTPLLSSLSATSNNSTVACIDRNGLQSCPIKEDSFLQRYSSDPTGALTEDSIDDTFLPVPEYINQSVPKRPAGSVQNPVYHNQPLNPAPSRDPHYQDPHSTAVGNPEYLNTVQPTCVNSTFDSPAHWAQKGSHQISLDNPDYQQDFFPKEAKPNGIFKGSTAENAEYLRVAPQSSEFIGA
Experimental: An expression vector, pLVX-IRES puro (Clontech) coding for human EGFR E746-A750 deletion and T790M Mutation, was transfected into HEK293 cells by the Trans-Lentiviral ORF Packaging System (Thermo Scientific), to produce virus encoding EGFR exon 19 deletion and T790M mutations. […] Ba/F3 cells expressing EGFR E746-A750 deletion and T790M Mutation (named Ba/F3-EGFR-Del/T790M) can proliferate in the absence of IL-3. The anti-proliferative activity of compounds was determined as follows: BaF3-EGFR-Del/T790M cells seeded in 96 well plates (2500 cells/well) were treated with test compound (dissolved in DMSO) at a series of concentrations (4-fold dilution, top concentration: 10,000 nM). The plates were incubated for 72 h in a 37° C. incubator with 5% CO2, and the number of viable cells in each well were measured indirectly by CellTiter 96® Aqueous One Solution Cell Proliferation Assay (Promega; this assay is a colorimetric method for determining the number of viable cells through measurement of their metabolic activity by detection of enzymatic conversion of tetrazolium salts into blue formazan derivatives). Reagent (20 μL) was added into each well, and the plates were returned to the incubator for 2 h. The absorbance in each well was then measured at 490 nm using an Envision plate reader (Perkin Elmer).

Sequence of human EGFR exon 20 insertion ASV (V769_D770insASV) (P00533 other isoform, or with tags, fused parts or gaps ins ASV behind 769): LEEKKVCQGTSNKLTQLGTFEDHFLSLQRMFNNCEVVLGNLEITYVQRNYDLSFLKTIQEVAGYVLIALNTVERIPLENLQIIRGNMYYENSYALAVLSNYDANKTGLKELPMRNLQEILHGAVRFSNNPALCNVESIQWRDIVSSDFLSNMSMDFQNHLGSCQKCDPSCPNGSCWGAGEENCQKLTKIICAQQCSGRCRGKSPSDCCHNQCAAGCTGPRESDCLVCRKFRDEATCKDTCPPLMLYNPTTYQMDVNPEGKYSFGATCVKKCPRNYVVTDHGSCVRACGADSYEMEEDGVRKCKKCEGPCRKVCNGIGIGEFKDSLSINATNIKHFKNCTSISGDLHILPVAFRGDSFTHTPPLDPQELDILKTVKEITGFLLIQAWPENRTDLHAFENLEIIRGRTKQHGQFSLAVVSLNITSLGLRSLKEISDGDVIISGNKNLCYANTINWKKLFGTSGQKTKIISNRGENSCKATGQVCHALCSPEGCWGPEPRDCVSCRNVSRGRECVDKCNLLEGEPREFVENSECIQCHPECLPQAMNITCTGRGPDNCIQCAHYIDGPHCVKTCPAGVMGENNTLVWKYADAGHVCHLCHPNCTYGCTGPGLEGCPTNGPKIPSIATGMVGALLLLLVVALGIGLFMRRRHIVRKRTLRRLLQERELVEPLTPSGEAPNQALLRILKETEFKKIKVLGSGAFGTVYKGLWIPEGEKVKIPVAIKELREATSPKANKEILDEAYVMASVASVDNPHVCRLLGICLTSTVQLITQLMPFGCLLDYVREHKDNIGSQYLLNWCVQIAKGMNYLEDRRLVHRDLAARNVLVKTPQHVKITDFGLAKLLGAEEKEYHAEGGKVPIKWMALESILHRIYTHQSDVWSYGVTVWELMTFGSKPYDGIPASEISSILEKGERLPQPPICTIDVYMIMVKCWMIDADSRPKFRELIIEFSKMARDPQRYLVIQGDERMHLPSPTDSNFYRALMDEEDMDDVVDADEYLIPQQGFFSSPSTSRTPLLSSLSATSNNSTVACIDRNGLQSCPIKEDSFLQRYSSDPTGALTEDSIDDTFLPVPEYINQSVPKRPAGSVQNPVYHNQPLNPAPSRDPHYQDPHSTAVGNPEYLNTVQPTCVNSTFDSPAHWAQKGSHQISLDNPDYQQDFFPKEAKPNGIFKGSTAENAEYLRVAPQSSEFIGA
Sequence of human EGFR exon 20 insertion NPG (H773_V774insNPG) (P00533 with tags, fused parts or gaps INS773NPG limits assumed): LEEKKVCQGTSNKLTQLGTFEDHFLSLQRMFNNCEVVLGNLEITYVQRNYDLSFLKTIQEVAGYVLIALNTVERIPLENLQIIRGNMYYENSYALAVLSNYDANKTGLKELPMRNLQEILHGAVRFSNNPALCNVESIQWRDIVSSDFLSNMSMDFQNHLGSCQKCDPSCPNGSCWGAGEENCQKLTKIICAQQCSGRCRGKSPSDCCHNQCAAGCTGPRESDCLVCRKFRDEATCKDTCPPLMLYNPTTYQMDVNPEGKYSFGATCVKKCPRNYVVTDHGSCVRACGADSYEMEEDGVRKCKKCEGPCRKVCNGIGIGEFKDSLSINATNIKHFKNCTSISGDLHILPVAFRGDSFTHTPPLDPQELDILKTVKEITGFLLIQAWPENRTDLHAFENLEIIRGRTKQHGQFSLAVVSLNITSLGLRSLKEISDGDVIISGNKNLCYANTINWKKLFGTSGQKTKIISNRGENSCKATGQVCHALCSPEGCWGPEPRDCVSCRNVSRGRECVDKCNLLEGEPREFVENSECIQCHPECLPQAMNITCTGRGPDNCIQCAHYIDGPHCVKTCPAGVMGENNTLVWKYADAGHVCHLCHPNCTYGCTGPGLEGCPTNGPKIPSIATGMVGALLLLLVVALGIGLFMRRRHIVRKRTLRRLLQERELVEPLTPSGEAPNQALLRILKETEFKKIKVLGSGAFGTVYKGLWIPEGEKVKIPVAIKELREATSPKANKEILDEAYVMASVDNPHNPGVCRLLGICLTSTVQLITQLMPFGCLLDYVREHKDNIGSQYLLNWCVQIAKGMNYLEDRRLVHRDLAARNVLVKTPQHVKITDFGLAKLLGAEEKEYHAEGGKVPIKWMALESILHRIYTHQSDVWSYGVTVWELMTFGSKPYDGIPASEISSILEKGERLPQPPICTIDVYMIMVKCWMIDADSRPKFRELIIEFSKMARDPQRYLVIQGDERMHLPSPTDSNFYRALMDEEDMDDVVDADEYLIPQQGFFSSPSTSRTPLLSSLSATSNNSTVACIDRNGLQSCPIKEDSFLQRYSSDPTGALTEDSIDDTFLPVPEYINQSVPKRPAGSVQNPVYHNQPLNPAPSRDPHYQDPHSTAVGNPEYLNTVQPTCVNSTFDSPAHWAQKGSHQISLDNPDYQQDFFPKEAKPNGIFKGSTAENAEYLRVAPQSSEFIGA
Sequence of Her2 exon 20 YVMA insertion (A775_G776ins YVMA) (P04626 other isoform, or with tags, fused parts or gaps ins YVMA behind 775): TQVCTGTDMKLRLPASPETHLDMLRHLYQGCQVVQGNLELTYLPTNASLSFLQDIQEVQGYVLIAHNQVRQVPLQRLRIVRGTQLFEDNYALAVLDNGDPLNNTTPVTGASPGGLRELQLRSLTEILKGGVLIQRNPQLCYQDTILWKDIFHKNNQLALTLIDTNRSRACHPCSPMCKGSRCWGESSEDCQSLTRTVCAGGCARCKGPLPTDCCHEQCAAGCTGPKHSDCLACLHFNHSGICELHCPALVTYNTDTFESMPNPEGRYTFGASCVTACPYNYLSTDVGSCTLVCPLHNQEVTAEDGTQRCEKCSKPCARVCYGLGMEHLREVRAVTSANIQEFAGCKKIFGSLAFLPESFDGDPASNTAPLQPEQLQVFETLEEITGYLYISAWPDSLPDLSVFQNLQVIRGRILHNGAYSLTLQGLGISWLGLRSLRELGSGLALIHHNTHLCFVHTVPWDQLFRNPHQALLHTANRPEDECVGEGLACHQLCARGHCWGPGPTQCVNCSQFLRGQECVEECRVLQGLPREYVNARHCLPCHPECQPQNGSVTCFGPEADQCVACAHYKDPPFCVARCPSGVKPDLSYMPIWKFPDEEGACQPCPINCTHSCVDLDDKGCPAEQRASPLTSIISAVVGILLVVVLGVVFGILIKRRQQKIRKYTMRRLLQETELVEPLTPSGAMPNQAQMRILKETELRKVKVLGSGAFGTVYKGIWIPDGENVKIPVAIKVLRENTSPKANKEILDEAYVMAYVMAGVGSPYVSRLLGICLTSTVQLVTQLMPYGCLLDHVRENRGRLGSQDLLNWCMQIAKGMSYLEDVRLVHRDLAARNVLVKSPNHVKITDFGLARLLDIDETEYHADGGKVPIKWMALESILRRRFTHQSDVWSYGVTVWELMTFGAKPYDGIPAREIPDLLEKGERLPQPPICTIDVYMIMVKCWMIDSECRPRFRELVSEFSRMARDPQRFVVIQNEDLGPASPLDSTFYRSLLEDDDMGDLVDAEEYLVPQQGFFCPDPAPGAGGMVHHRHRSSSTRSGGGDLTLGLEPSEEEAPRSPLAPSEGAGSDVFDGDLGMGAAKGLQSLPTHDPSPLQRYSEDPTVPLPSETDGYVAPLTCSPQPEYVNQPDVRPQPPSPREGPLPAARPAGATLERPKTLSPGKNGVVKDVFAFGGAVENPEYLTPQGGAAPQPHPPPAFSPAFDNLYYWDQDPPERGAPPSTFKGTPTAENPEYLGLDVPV

| SMILES | IC50 [1] | IC50 [2] | IC50 [3] | IC50 [4] |
| --- | --- | --- | --- | --- |
| C=CC(=O)Nc1cc(Nc2ncc(C(=O)OC(C)C)c(-c3cnc4ccccn34)n2)c(OC)cc1N(C)CCN(C)C [Example 94, isopropyl 2-((5-acrylamido-4-((2-(dimethylamino)ethyl)(methyl)amino)-2-methoxyphenyl)amino)-4-(imidazo[1,2-a]pyridin-3-yl)pyrimidine-5-carboxylate] | < 100 nM | < 100 nM | < 100 nM | < 100 nM |
| C=CC(=O)Nc1ccc(OC)c(Nc2ncc(C#N)c(-c3cn(C)c4cc(OCCN5CCCC5)ccc34)n2)c1 [Example 20, N-(3-((5-cyano-4-(1-methyl-6-(2-(pyrrolidin-1-yl)ethoxy)-1H-indol-3-yl)pyrimidin-2-yl)amino)-4-methoxyphenyl)acrylamide] | 100 to 500 nM | 500 to 1000 nM | < 100 nM | < 100 nM |
| C=CC(=O)Nc1cc(Nc2ncc(NC(=O)C(C)(C)C)c(-c3cn(C)c4ccccc34)n2)c(OC)cc1N(C)CCN(C)C [Example 41, N-(2-((2-(dimethylamino)ethyl)-(methyl)amino)-4-methoxy-5-((4-(1-methyl-1H-indol-3-yl)-5-pivalamidopyrimidin-2-yl)amino)phenyl)acrylamide] | 500 to 1000 nM | > 1000 nM | 100 to 500 nM | > 1000 nM |
| C=CC(=O)Nc1ccc(OC)c(Nc2ncc(Cl)c(-c3c[nH]c4cc(OCCN5CCCC5)ccc34)n2)c1 [Example 22, N-(3-((5-chloro-4-(6-(2-(pyrrolidin-1-yl)ethoxy)-1H-indol-3-yl)pyrimidin-2-yl)amino)-4-methoxyphenyl)acrylamide] | 100 to 500 nM | 100 to 500 nM | < 100 nM | < 100 nM |
| C=CC(=O)Nc1cc(Nc2ncc(C(=O)OC)c(-c3cn(C)c4ccccc34)n2)c(OC)cc1CCCN(C)C [Example 69, methyl 2-((5-acrylamido-4-(3-(dimethylamino)propyl)-2-methoxyphenyl)amino)-4-(1-methyl-1H-indol-3-yl)pyrimidine-5-carboxylate] | 100 to 500 nM | 500 to 1000 nM | < 100 nM | < 100 nM |
| C=CC(=O)Nc1cc(Nc2ncc(C(=O)OCC(C)C)c(-c3cn(C)c4ccccc34)n2)c(OC)cc1N(C)CCN(C)C [Example 28, isobutyl 2-((5-acrylamido-4-((2-(dimethylamino)ethyl)(methyl)amino)-2-methoxyphenyl)amino)-4-(1-methyl-1H-indol-3-yl)pyrimidine-5-carboxylate] | < 100 nM | 100 to 500 nM | < 100 nM | < 100 nM |
| C=CC(=O)Nc1cc(Nc2ncc(C(=O)OC(C)C)c(-c3cn(C)c4c(OC)cccc34)n2)c(OC)cc1N(C)CCN(C)C [Example 31, isopropyl 2-((5-acrylamido-4-((2-(dimethylamino)ethyl)(methyl)amino)-2-methoxyphenyl)amino)-4-(7-methoxy-1-methyl-1H-indol-3-yl)pyrimidine-5-carboxylate] | < 100 nM | < 100 nM | < 100 nM | < 100 nM |
| C=CC(=O)Nc1cc(Nc2ncc(C(=O)OCC3CC3)c(-c3cn(C)c4ccccc34)n2)c(OC)cc1N(C)CCN(C)C [Example 13, cyclopropylmethyl 2-((5-acrylamido-4-((2-(dimethylamino)ethyl)(methyl)amino)-2-methoxyphenyl)amino)-4-(1-methyl-1H-indol-3-yl)pyrimidine-5-carboxylate] | < 100 nM | < 100 nM | < 100 nM | < 100 nM |
| C=CC(=O)Nc1cc(Nc2ncnc(-c3c(-c4ccccc4)n(C)c4ccccc34)n2)c(OC)cc1N(C)CCN(C)C [Example 3, N-(2-((2-(dimethylamino)ethyl)(methyl)amino)-4-methoxy-5-((4-(1-methyl-2-phenyl-1H-indol-3-yl)-1,3,5-triazin-2-yl)amino)phenyl)acrylamide] | < 100 nM | 100 to 500 nM | < 100 nM | < 100 nM |

From patent publication US10227342B2 (ARIAD PHARMACEUTICALS, INC., priority 2014, dated 2019)
